Data set [1] deals with recombinant human IL-17AA (Homo sapiens, UniProt Q16552). Nature of the data set: IL-6 release from NHDF cells, IL-17AA plus TNF-α stimulation. The note with it: NHDF cells, 24 hours, IL-6 by ELISA. It is filed as cell-based. The essentials: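 ELISA measured IL-6 in supernatants after 24 h at 37° C of NHDF cells with a compound/cytokine cocktail, pre-mixed 30 min at room temperature. Duplicates; 0.1% DMSO or 20% plasma final. IC50 from IL-6 remaining after subtracting the TNF-α-alone signal.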

In data set [2] the target is biotinylated human IL-17A / AF647-labeled human IL-17RA (Homo sapiens, UniProt Q16552). Nature of the data set: Human IL-17A×IL-17RA TR-FRET assay. It is filed as binding. The settings on record: TR-FRET. The essentials: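 Compounds tested in duplicate at each concentration; neutral controls contain all components with DMSO in place of compound.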
Where [3] appears, read: IL-17AA 30 pM plus TNF-α 6 pM, read-out: IL17AA + TNF IC50 IL-6.
[4] abbreviates: biotinylated human IL-17A 5 nM, AF647-labeled human IL-17RA 30 nM, read-out: IL17AA FRET/ IL17Rawt IC50.

Read-outs that look alike come from different tables or passages of the source.

recombinant human IL-17AA, sequence (Q16552 24-155): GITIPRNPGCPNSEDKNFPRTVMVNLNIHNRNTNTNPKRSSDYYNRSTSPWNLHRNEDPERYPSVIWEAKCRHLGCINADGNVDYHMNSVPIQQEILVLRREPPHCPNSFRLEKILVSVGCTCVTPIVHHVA
biotinylated human IL-17A / AF647-labeled human IL-17RA, sequence (Q16552 24-155): as above

Consider `CCc1nocc1C(=O)N[C@H](C(=O)Nc1ccc(-c2c(C(F)(F)F)cc[n+]([O-])c2C)cc1)C1CCCC1` [Example 5, (S)-3-(4-(2-cyclopentyl-2-(3-ethylisoxazole-4-carboxamido)acetamido)phenyl)-2-methyl-4-(trifluoromethyl)pyridine 1-oxide], for which the melting point fell in the range of 149 to 151 °C. Besides, the IC50 in data set [1] (setting [3]) is 9 nM. In addition, the IC50 in data set [2] (setting [4]) was determined as 28 nM.
The like results for `CCc1nocc1C(=O)N[C@H](C(=O)Nc1ccc(-c2c(Cl)cc[n+]([O-])c2C)cc1)[C@H]1CCCC(F)(F)C1` [Example 6, 4-chloro-3-(4-((S)-2-((S)-3,3-difluorocyclohexyl)-2-(3-ethylisoxazole-4-carboxamido)acetamido)phenyl)-2-methylpyridine 1-oxide] were, in that order, 247 to 250 °C, 5 nM and 48 nM.
On to `Cc1nocc1C(=O)NC(C(=O)Nc1ccc(-c2c(Cl)cc[n+]([O-])c2C)c(F)c1)[C@H]1C[C@@H]2C[C@@H]2C1` (stereo partly drawn) [Example 57, 3-(4-(2-((1R,3s,5S)-bicyclo[3.1.0]hexan-3-yl)-2-(3-methylisoxazole-4-carboxamido)acetamido)-2-fluorophenyl)-4-chloro-2-methylpyridine 1-oxide], for which the values for the IC50 in data set [1] (setting [3]) and in data set [2] (setting [4]) were 12 nM and 37 nM, respectively.
The like results for `Cc1cc[n+]([O-])c(C)c1-c1ccc(NC(=O)[C@@H](NC(=O)c2ccnn2C)C2CCCC2)cc1` [Example 36, (S)-3-(4-(2-cyclopentyl-2-(1-methyl-1H-pyrazole-5-carboxamido)acetamido)phenyl)-2,4-dimethylpyridine 1-oxide] were, in that order, 38 nM and 1410 nM.
Consider `CCc1nocc1C(=O)N[C@H](C(=O)Nc1ccc(-c2c(C(F)(F)F)ccnc2C)cc1)C1CCCC1` [compound 139, (S)-N-(1-cyclopentyl-2-((4-(2-methyl-4-(trifluoromethyl)pyridin-3-yl)phenyl)amino)-2-oxoethyl)-3-ethylisoxazole-4-carboxamide, reference compound], for which the IC50 in data set [1] (IL-17AA 30 pM + TNF-α 6 pM, reference examples (pyridines), read-out: IL 17AA + TNF IC50 IL-6) amounted to 152 nM; in data set [2] (5 nM IL-17A, 30 nM IL-17RA, reference examples (pyridines), read-out: IL17AA FRET/ IL17RAwt IC50) it was 899 nM.
Turning to `Cc1c(-c2c(F)cc(NC(=O)[C@@H](NC(=O)c3ccnn3C)C3CCCCC3)cc2F)c(Cl)cc[n+]1[O-]` [Example 61, (S)-4-chloro-3-(4-(2-cyclohexyl-2-(1-methyl-1H-pyrazole-5-carboxamido)acetamido)-2,6-difluorophenyl)-2-methylpyridine 1-oxide], the IC50 in data set [1] (setting [3]) came to 16 nM; in data set [2] (setting [4]), 18 nM.

The values above are taken from patent publication US12600728B2, “Interleukin-17 inhibitors” (priority 2020, dated 2026).
